Experiment: recombinant UMI read abundance after kanamycin selection (control-corrected) (log10(CPM+1)); higher = more efficient recombination; extreme values may be limits of the assay; sequences stand for … in AGTGCAGAGAAAATCGGCCAGTTTTCTCTGCCTGCAGTCCGCATGCCGTGGGACCCCTTGGGTTCTAACCTGTTGCCTAGATTTATGCAGCGGACTGCCTTTCTCCCAAAGTGATAAACCGG…AGGTTGGTTTCACT; site = the 11-nt donor
Procedure: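 Pooled E. coli donor-specificity screen for the IS621 bridge recombinase. Each library member carries a reprogrammed 11-nt donor and a full-length LE bridge RNA expressed in cis from the natural promoter, with a paired donor-binding loop (8-nt LDG + 4-nt RDG) and a target-binding loop fixed to T5. It is co-electroporated with a T5 target plasmid; recombinase is induced with 0.07 mM IPTG and recombinants are selected on kanamycin. UMIs are counted as CPM, averaged over two biological replicates and corrected by the unselected control. Molecule = full bridge RNA written as DNA, built from the T5 scaffold: LDG = donor specificity nt 1-8, RDG = reverse complement of nt 8-11.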
For “ACCGTATCATGGACCGGTTTTCCCGGTAATCCGTATTTGCA (site ACGGTATCTTG)”, the “recombinant UMI read abundance (log10)” value was 0.962. With “ACCGTATCATGGACCGGTTTTCCCGGTAATCCGTATTTGCA (site ACTGTATCTTG)” the “recombinant UMI read abundance (log10)” value was 0.874. With “ACCGTGGCATGGACCGGTTTTCCCGGTAATCCGTATTTGGA (site ACCGTGGCTTC)” the “recombinant UMI read abundance (log10)” value was 0.325. For “ACCGTTACATGGACCGGTTTTCCCGGTAATCCGTATTTGTC (site ACCGTTACTGA)”, the “recombinant UMI read abundance (log10)” value was 1.49. For “ACCTAAACATGGACCGGTTTTCCCGGTAATCCGTATTTGGG (site ACCTAAACTCC)”, the “recombinant UMI read abundance (log10)” value was 0.256. For “ACCTAAACATGGACCGGTTTTCCCGGTAATCCGTATTTGGG (site ACCTACACTCC)”, the “recombinant UMI read abundance (log10)” value was 0.0196. With “ACCTAAACATGGACCGGTTTTCCCGGTAATCCGTATTTGGG (site ACCTAGACTCC)” the “recombinant UMI read abundance (log10)” value was 0.0149. With “ACCTAAACATGGACCGGTTTTCCCGGTAATCCGTATTTGGG (site ACCTATACTCC)” the “recombinant UMI read abundance (log10)” value was 0.0143. In the case of “ACCTACACATGGACCGGTTTTCCCGGTAATCCGTATTTGGG (site ACCTAAACTCC)”, the “recombinant UMI read abundance (log10)” value is reported as 0.00329. In the case of “ACCTACACATGGACCGGTTTTCCCGGTAATCCGTATTTGGG (site ACCTACACTCC)”, the “recombinant UMI read abundance (log10)” value is reported as 0.0331. In the case of “ACCTACACATGGACCGGTTTTCCCGGTAATCCGTATTTGGG (site ACCTAGACTCC)”, the “recombinant UMI read abundance (log10)” value is reported as 0.00747. For “ACCTACACATGGACCGGTTTTCCCGGTAATCCGTATTTGGG (site ACCTATACTCC)”, the “recombinant UMI read abundance (log10)” value was 0.0213. In the case of “ACCTAGACATGGACCGGTTTTCCCGGTAATCCGTATTTGCG (site ACCTAGACTCA)”, the “recombinant UMI read abundance (log10)” value is reported as 0.0199. For “ACCTAGACATGGACCGGTTTTCCCGGTAATCCGTATTTGCG (site ACCTAGACTCC)”, the “recombinant UMI read abundance (log10)” value was 0.0218. For “ACCTAGACATGGACCGGTTTTCCCGGTAATCCGTATTTGCG (site ACCTAGACTCG)”, the “recombinant UMI read abundance (log10)” value was 1.58. For “ACCTAGACATGGACCGGTTTTCCCGGTAATCCGTATTTGCG (site ACCTAGACTCT)”, the “recombinant UMI read abundance (log10)” value was 0.262. With “ACCTAGACATGGACCGGTTTTCCCGGTAATCCGTATTTGGC (site ACCTAGACTAC)” the “recombinant UMI read abundance (log10)” value was 0.532. For “ACCTAGACATGGACCGGTTTTCCCGGTAATCCGTATTTGGC (site ACCTAGACTCC)”, the “recombinant UMI read abundance (log10)” value was 0.0128. In the case of “ACCTAGACATGGACCGGTTTTCCCGGTAATCCGTATTTGGC (site ACCTAGACTGC)”, the “recombinant UMI read abundance (log10)” value is reported as 1.82. With “ACCTAGACATGGACCGGTTTTCCCGGTAATCCGTATTTGGC (site ACCTAGACTTC)” the “recombinant UMI read abundance (log10)” value was 0.00402. In the case of “ACCTAGACATGGACCGGTTTTCCCGGTAATCCGTATTTGTG (site ACCTAGACTCA)”, the “recombinant UMI read abundance (log10)” value is reported as 0.799. In the case of “ACCTAGACATGGACCGGTTTTCCCGGTAATCCGTATTTGTG (site ACCTAGACTCC)”, the “recombinant UMI read abundance (log10)” value is reported as 0.114. With “ACCTAGACATGGACCGGTTTTCCCGGTAATCCGTATTTGTG (site ACCTAGACTCG)” the “recombinant UMI read abundance (log10)” value was 0.469. For “ACCTAGACATGGACCGGTTTTCCCGGTAATCCGTATTTGTG (site ACCTAGACTCT)”, the “recombinant UMI read abundance (log10)” value was 0.22. In the case of “ACCTAGCCATGGACCGGTTTTCCCGGTAATCCGTATTTGGG (site ACCTAGACTCC)”, the “recombinant UMI read abundance (log10)” value is reported as 0.00935. With “ACCTAGCCATGGACCGGTTTTCCCGGTAATCCGTATTTGGG (site ACCTAGCCTCC)” the “recombinant UMI read abundance (log10)” value was 0.00989. With “ACCTAGCCATGGACCGGTTTTCCCGGTAATCCGTATTTGGG (site ACCTAGGCTCC)” the “recombinant UMI read abundance (log10)” value was 0.0311. With “ACCTAGCCATGGACCGGTTTTCCCGGTAATCCGTATTTGGG (site ACCTAGTCTCC)” the “recombinant UMI read abundance (log10)” value was 0.0502. For “ACCTATACATGGACCGGTTTTCCCGGTAATCCGTATTTGGG (site ACCTAAACTCC)”, the “recombinant UMI read abundance (log10)” value was 0.00642. For “ACCTATACATGGACCGGTTTTCCCGGTAATCCGTATTTGGG (site ACCTACACTCC)”, the “recombinant UMI read abundance (log10)” value was 0.0606. For “ACCTATACATGGACCGGTTTTCCCGGTAATCCGTATTTGGG (site ACCTAGACTCC)”, the “recombinant UMI read abundance (log10)” value was 0.0071. With “ACCTATACATGGACCGGTTTTCCCGGTAATCCGTATTTGGG (site ACCTATACTCC)” the “recombinant UMI read abundance (log10)” value was 0.0144. With “ACCTCATCATGGACCGGTTTTCCCGGTAATCCGTATTTGGT (site ACCTCATCTAC)” the “recombinant UMI read abundance (log10)” value was 0.128. For “ACCTCCGCATGGACCGGTTTTCCCGGTAATCCGTATTTGAG (site ACCTCCGCTCT)”, the “recombinant UMI read abundance (log10)” value was 0.147. With “ACCTCTCCATGGACCGGTTTTCCCGGTAATCCGTATTTGCA (site ACCTCTCCTTG)” the “recombinant UMI read abundance (log10)” value was 0.367. In the case of “ACCTGGACATGGACCGGTTTTCCCGGTAATCCGTATTTGAG (site ACCTGGACTCT)”, the “recombinant UMI read abundance (log10)” value is reported as 1.41. In the case of “ACCTTTCCATGGACCGGTTTTCCCGGTAATCCGTATTTGGT (site ACCTTTCCTAC)”, the “recombinant UMI read abundance (log10)” value is reported as 0. With “ACGAAAACATGGACCGGTTTTCCCGGTAATCCGTATTTGCT (site ACGAAAACTAG)” the “recombinant UMI read abundance (log10)” value was 1.81. For “ACGAAAACATGGACCGGTTTTCCCGGTAATCCGTATTTGCT (site CCGAAAACTAG)”, the “recombinant UMI read abundance (log10)” value was 0. For “ACGAAAACATGGACCGGTTTTCCCGGTAATCCGTATTTGCT (site GCGAAAACTAG)”, the “recombinant UMI read abundance (log10)” value was 0.581. In the case of “ACGAAAACATGGACCGGTTTTCCCGGTAATCCGTATTTGCT (site TCGAAAACTAG)”, the “recombinant UMI read abundance (log10)” value is reported as 0. In the case of “ACGAATCCATGGACCGGTTTTCCCGGTAATCCGTATTTGTT (site ACGAATCCTAA)”, the “recombinant UMI read abundance (log10)” value is reported as 1.32. For “ACGAATCCATGGACCGGTTTTCCCGGTAATCCGTATTTGTT (site CGGAATCCTAA)”, the “recombinant UMI read abundance (log10)” value was 0. With “ACGACCACATGGACCGGTTTTCCCGGTAATCCGTATTTGTT (site ACGACCACTAA)” the “recombinant UMI read abundance (log10)” value was 1.29. In the case of “ACGACTACATGGACCGGTTTTCCCGGTAATCCGTATTTGAC (site AAGACTACTGT)”, the “recombinant UMI read abundance (log10)” value is reported as 1.19. With “ACGACTACATGGACCGGTTTTCCCGGTAATCCGTATTTGAC (site ACGACTACTGT)” the “recombinant UMI read abundance (log10)” value was 2.45. In the case of “ACGACTACATGGACCGGTTTTCCCGGTAATCCGTATTTGAC (site AGGACTACTGT)”, the “recombinant UMI read abundance (log10)” value is reported as 0.613. For “ACGACTACATGGACCGGTTTTCCCGGTAATCCGTATTTGAC (site ATGACTACTGT)”, the “recombinant UMI read abundance (log10)” value was 1.69. In the case of “ACGAGGCCATGGACCGGTTTTCCCGGTAATCCGTATTTGCC (site ACGAGGCCTGG)”, the “recombinant UMI read abundance (log10)” value is reported as 0.486. For “ACGAGTCCATGGACCGGTTTTCCCGGTAATCCGTATTTGGG (site ACGAGTCCTCC)”, the “recombinant UMI read abundance (log10)” value was 0.00727. For “ACGAGTGCATGGACCGGTTTTCCCGGTAATCCGTATTTGGT (site ACAAGTGCTAC)”, the “recombinant UMI read abundance (log10)” value was 2.22. In the case of “ACGAGTGCATGGACCGGTTTTCCCGGTAATCCGTATTTGGT (site ACCAGTGCTAC)”, the “recombinant UMI read abundance (log10)” value is reported as 0.837. In the case of “ACGAGTGCATGGACCGGTTTTCCCGGTAATCCGTATTTGGT (site ACGAGTGCTAC)”, the “recombinant UMI read abundance (log10)” value is reported as 2.31. In the case of “ACGAGTGCATGGACCGGTTTTCCCGGTAATCCGTATTTGGT (site ACTAGTGCTAC)”, the “recombinant UMI read abundance (log10)” value is reported as 1.22. With “ACGCAATCATGGACCGGTTTTCCCGGTAATCCGTATTTGAT (site ACGCAATCTAT)” the “recombinant UMI read abundance (log10)” value was 2.55. For “ACGCACGCATGGACCGGTTTTCCCGGTAATCCGTATTTGCA (site ACGCACGCTTG)”, the “recombinant UMI read abundance (log10)” value was 2.71. In the case of “ACGCCTACATGGACCGGTTTTCCCGGTAATCCGTATTTGAG (site ACGCCTACTCT)”, the “recombinant UMI read abundance (log10)” value is reported as 0.69. In the case of “ACGCGCACATGGACCGGTTTTCCCGGTAATCCGTATTTGTT (site ACGCGCACTAA)”, the “recombinant UMI read abundance (log10)” value is reported as 1.61. With “ACGCGTCCATGGACCGGTTTTCCCGGTAATCCGTATTTGAC (site ACGCGTCCTGT)” the “recombinant UMI read abundance (log10)” value was 1.55. For “ACGGAACCATGGACCGGTTTTCCCGGTAATCCGTATTTGAG (site ACGGAACCTCT)”, the “recombinant UMI read abundance (log10)” value was 0. With “ACGGAATCATGGACCGGTTTTCCCGGTAATCCGTATTTGTC (site ACGGAATCTGA)” the “recombinant UMI read abundance (log10)” value was 1.95. With “ACGGATTCATGGACCGGTTTTCCCGGTAATCCGTATTTGCG (site ACGGATTCTCG)” the “recombinant UMI read abundance (log10)” value was 2.66. For “ACGTAGACATGGACCGGTTTTCCCGGTAATCCGTATTTGGG (site ACATAGACTCC)”, the “recombinant UMI read abundance (log10)” value was 0.351. In the case of “ACGTAGACATGGACCGGTTTTCCCGGTAATCCGTATTTGGG (site ACCTAGACTCC)”, the “recombinant UMI read abundance (log10)” value is reported as 0.0219. In the case of “ACGTAGACATGGACCGGTTTTCCCGGTAATCCGTATTTGGG (site ACGTAGACTCC)”, the “recombinant UMI read abundance (log10)” value is reported as 0.4. With “ACGTAGACATGGACCGGTTTTCCCGGTAATCCGTATTTGGG (site ACTTAGACTCC)” the “recombinant UMI read abundance (log10)” value was 0.0197. For “ACGTCTACATGGACCGGTTTTCCCGGTAATCCGTATTTGTG (site ACATCTACTCA)”, the “recombinant UMI read abundance (log10)” value was 0.796. In the case of “ACGTCTACATGGACCGGTTTTCCCGGTAATCCGTATTTGTG (site ACCTCTACTCA)”, the “recombinant UMI read abundance (log10)” value is reported as 0.39. In the case of “ACGTCTACATGGACCGGTTTTCCCGGTAATCCGTATTTGTG (site ACGTCTACTCA)”, the “recombinant UMI read abundance (log10)” value is reported as 0.512. With “ACGTCTACATGGACCGGTTTTCCCGGTAATCCGTATTTGTG (site ACTTCTACTCA)” the “recombinant UMI read abundance (log10)” value was 0.0124. In the case of “ACGTCTGCATGGACCGGTTTTCCCGGTAATCCGTATTTGCT (site ACGTCTGCTAG)”, the “recombinant UMI read abundance (log10)” value is reported as 1.98. In the case of “ACTAACCCATGGACCGGTTTTCCCGGTAATCCGTATTTGGC (site ACTAACCCTGC)”, the “recombinant UMI read abundance (log10)” value is reported as 0.
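Also: IS621 bridge recombinase in Escherichia coli cells against a fixed T5 target plasmid.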
